Assay [1] concerns GBM patients. Description: Survival of temozolomide-treated GBM patients stratified by ZEB1 copy number and MGMT expression. As to conditions: temozolomide treatment. The class given is in vivo, human. The text has this:
Given our observations that ZEB1 and CD133 expression imparts GSC resistance to differentiation and impacts patient survival, we considered if ZEB1 loss would impact response to therapy. To do this, we explored the role of 06-methylguanine-DNA methyltransferase (MGMT) which removes DNA alkylating agents and therefore hinders the effectiveness of chemotherapeutic alkylating agents including temozolomide.^28 The MGMT promoter region has been shown when hypermethylated to suppress MGMT activity conferring chemosensitivity resulting in favorable prognosis compared to the hypomethylated state of MGMT which results in poor patient outcomes. MGMT expression is inversely correlated to its methylated state. We sought to determine the effect of ZEB1 loss on the clinical impact of hypermethylation of MGMT in the presence of temozolomide.
MGMT expression is inversely correlated to its methylated state. We sought to determine the effect of ZEB1 deletion on the clinical impact of hypermethylation of MGMT in the presence of temozolomide.

Assay [2] concerns GBM patients. Conditions: two recent phase III trials; cited from earlier work.
The test system of a further assay is glioblastoma patients. Description: Overall survival of 403 glioblastoma patients treated with or without bevacizumab, stratified by ZEB1 expression. The class given is in vivo, human. As to conditions: general patient population. The source says: Studies reported OS results by ZEB1 status and permutations of ZEB1/IDH1 status via (1) Kaplan-Meier curves, (2) hazard ratios (HRs) and corresponding 95% confidence intervals, (3) c-statistic. We translated all reports of survival outcomes to the number of events and the survival time. Patients not experiencing event were censored at the last follow-up date.
Data are presented as frequency (percentage, %) for categorical variables and median (IQR, interquartile range) for continuous variables. ZEB1 and IDH1 mRNA values were log base 2 transformed. Univariate associations between variables were examined with Wilcoxon rank-sum test, chi-square test, or Spearman rank correlation, where appropriate. A Cox proportional hazards regression model was employed in univariate and multivariable analyses to identify variables that predict OS. The proportional hazards assumption was evaluated with Schoenfeld residuals and a Kolmogorov-type supremum test. Hazard ratios (HRs) were expressed as an increase from the 25th to 75th percentile in continuous variables. Multivariable analysis was further carried out with the Cox proportional hazards model to examine whether an improvement in predictive discriminatory power was obtained when ZEB1 was added to the model containing the known marker, IDH1 and age. […]

The subject of assay [3] is GBM patients. Description: Kaplan-Meier overall survival of GBM patients treated with or without bevacizumab, stratified by ZEB1 copy number (study set J / data set of 78 GBM patients). It counts as in vivo, human. The text has this:
Data are expressed as mean±s.e.m. Kaplan-Meier curves and p values were generated using Prism 6.0v. Two-tailed student's t-test, were used. A P value of *<0.05 was considered significant.

A further assay relates to GCSCs. Description: ZEB1 expression by qRT-PCR in GCSCs treated with IFN-γ. It counts as cell-based, human. Conditions: IFN-γ 3 days (200 ng/ml). The method, then: FIGS. 15A-15J depict, in accordance with various embodiments of the present invention, effect of IFN-γ on LIF and ZEB1 activation in patient derived glioma cancer stem cells (GCSCs). (FIG. 15A) GCSCs were treated with IFN-γ for 3-days and ZEB1 expression levels were determined by qRT-PCR. (FIG. 15B) The percentage of CD133^+ GCSCs in the presence and absence of IFN-γ were determined by flow cytometry. GCSCs were incubated with IFN-γ for 7-days. (FIG. 15C) The effects of IFN-γ on secondary neurosphere formation. […] (FIG. 15E) Spearman correlation between LIF and ZEB1 GBM patients (n=28), rank correlation (R) and two-tailed significance is shown. (FIG. 15F) ZEB1 binding motifs within the LIF promoter (CAGGTG, ***P<0.0001 and CAGGTA,***P<0.0001). […]
To generate GSCs that stably express short hairpin RNAs (shRNAs) that target ZEB1, we co-transfected shRNA (Origene, Rockville Md.),—that target ZEB1 into our 0827 or 0323 GSCs, with a VSV-G expression plasmid (Clontech) into the GP2-293 packaging cell line (Clontech) according to the manufacturer's instructions. […] Cells that were resistant to puromycin were characterized for ZEB1 expression by immunoblotting and subsequent cell proliferation using 5-ethynyl-2′-deoxyuridine (EdU) Click-IT assay (Life Technologies) using fluorescence activated cell sorting (FACs) analysis according to the manufacturer's instructions. […]
Background: Quantitative PCR measures a nucleic acid by following its amplification.

Another assay relates to LIF promoter. Description: LIF luciferase reporter assay in GCSCs. The class given is cell-based, human. As to conditions: IFN-γ 200 ng/mL 72 hrs; all constructs except −109/+10 region. The method, then: (§1) To measure transcriptional activity of LIF, 0827 GSCs (1×10^4 cells per transfection, three replicates per condition) were transiently transfected with one of several deletion LIF luciferase reporter plasmids (1 ug; Switchgear) with the use of X-treme gene HP DNA (Roche), seeded in six-well plates (1×10^4 cell per well), and incubated for 48 hrs. IFN-γ cytokine (200 ng/mL) was added to the cultures and the cells were incubated for 72 hrs. The cells were harvested and the luciferase activity was measured with the use of a GloMax 20/20 Luminometer (Promega, Madison, Wis.). These experiments were carried out in triplicate on three different occasions.
as §1, with “GCSCs” for “GSCs”, “IFN-6” for “IFN-γ”, “occasions. […]” for “occasions.”

Assay [4] deals with GSCs. Description: Neurosphere formation and limiting dilution sphere-forming assay. The class given is cell-based, human. Conditions: IFN-γ treated GSCs. The method, then: Neural Basal A media (Invitrogen) supplemented with EGF and bFGF (R&D Systems) were used to culture primary patient derived glioma stem cells (GSCs) which were dissociated into single cells sorted for CD133 expression and plated onto 24 well plates with various seeding densities (4-100 cells/well). GSCs were incubated at 37° C. at 5% CO2 for 2 to 3 weeks. GSCs were then quantified for neurosphere formation.
Neural Basal A media (Invitrogen) supplemented with EGF and bFGF (R&D Systems) were used to culture primary patient derived GCSCs which were dissociated into single cells sorted for CD133 expression and plated onto 24 well plates with various seeding densities (4-100 cells/well). GCSCs were incubated at 37° C. at 5% CO2 for 2 to 3 weeks. GCSCs were then quantified for neurosphere formation.

For assay [5], the system named is GSCs. Description: CD133 staining of GSCs by flow cytometry (FACs). The class given is cell-based, human. As to conditions: IFN-γ 7 days (100 ng/ml). The method, then: GSCs were washed with 1× PBS buffer 3 times and resuspended in 1× PBS. GSCs were fixed in 4% formaldehyde for 15 min at room temperature. Cells were washed with 1× PBS buffer and were incubated in 0.1% Triton X-100 for 5 min, washed and then incubated with FcR Blocker (Mitenyi Biotech) followed by incubation with CD133 antibody conjugated to Phycoerythrin (PE) or although not shown an isotype control was also performed (Mitenyi Biotech), protected from light for 1 hr at room temperature. Cells were washed and analyzed on a FACscan flow cytometer (BD Biosciences, San Jose, Calif.).
GSCs were washed with 1× PBS buffer 3 times and resuspended in 1× PBS. GSCs were fixed in 4% formaldehyde for 15 min at room temperature. Cells were washed with 1× PBS buffer and were incubated in 0.1% Triton X-100 for 5 min, washed and then incubated with FcR Blocker (Mitenyi Biotech) followed by incubation with CD133 antibody conjugated to Phycoerythrin (PE) or although not shown an isotype control was also performed (Miltenyi Biotech), protected from light for 1 […] at room temperature. Cells were washed and analyzed on a FACscan flow cytometer (BD Biosciences).
GCSCs were washed with 1× PBS buffer 3 times and resuspended in 1× PBS. GCSCs were fixed in 4% formaldehyde for 15 min at room temperature. […] Cells were washed and analyzed on a FACscan flow cytometer (BD Biosciences). […]
(A flow cytometer gives signals particle by particle.)

“Also recorded” adds a separate entry of the source.

As to `Cn1nnc2c(C(N)=O)ncn2c1=O` [temozolomide], the “hazard ratio, patient survival, ZEB1 deletion vs wildtype ZEB1” value in the assay on GBM patients [1] (high MGMT expression (n=121)) is given as 1.59; in the assay on GBM patients [1] (low MGMT expression (n=115)) it was 1.56.
In the case of bevacizumab, the “survival advantage in GBM patients” value in the assay with GBM patients [2] is “no survival advantage”. Besides, the “effect on patient survival” value is recorded as “did little to alter patient survival” in the assay on glioblastoma patients; “significant survival benefit; also recorded: increase in survival” in the assay with GBM patients [3] (ZEB1 deleted patients); “no change in survival; also recorded: no effect” in the assay on GBM patients [3] (ZEB1 intact / ZEB1 wt patients); “did little to alter patient survival” in the assay on GBM patients [3] (general patient population, independent data set of 78 GBM patients).

B1: IFN-γ: proinflammatory cytokine interferon gamma (eBioscience) (protein, UniProt P01579 24-161, looked up)
Interferon gamma: QDPYVKEAENLKKYFNAGHSDVADNGTLFLGILKNWKEESDRKIMQSQIVSFYFKLFKNFKDDQSIQKSVETIKEDMNVKFFNSNKKKRDDFEKLTNYSVTDLNVQRKAIHELIQVMAELSPAAKTGKRKRSQMLFRG
In the case of B1, the “ZEB1 induction (expression) vs untreated” value in the assay on GCSCs was “significant increase; also recorded: induced”. Also, the “LIF transcriptional activity (luciferase deletion constructs)” value in the assay with LIF promoter was “suppressive effect”. In addition, the secondary neurosphere formation result with GSCs [4] was “decreased”. Besides, in the assay on GSCs [4] (limiting dilution), the “self-renewal capabilities vs untreated” value is listed as “decreased”. Further, in the assay with GSCs [5], the CD133 expression entry is “decreased”.

Source of the values: patent US9915659B2, “Systems and methods for prognosticating brain tumors” (Cedars-Sinai Medical Center, priority 2013, dated 2018).
